Laboratory results taken from US20260048059A1, “USE OF SUBSTITUTED BENZOXAZOLE AND BENZOFURAN COMPOUNDS FOR THE TREATMENT AND PREVENTION OF DISEASES ASSOCIATED WITH CHRONIC FATIGUE, EXHAUSTION AND/OR EXERTIONAL INTOLERANC” (MITODICURE GMBH, priority 2022, published 2026).

System: isolated rat soleus muscle
Assay: Ex vivo isolated rat soleus muscle: residual contractile force in high KCl (12.5 mM) buffer
Settings: salbutamol 1 μM alone (control group); 30 min in KCl 12.5 mM buffer, relative to last force in initial buffer
Description: The isolated rat muscle either soleus muscle or extensor digitorum longus muscle is a well-characterized and well-validated model for the study of the function of the Na^+/K^+ ATPase. The isolated rat soleus muscle is particularly appropriate for experiments ex vivo as it is very thin so that there is no need for blood supply. […] In the experimental setting used, the high KCl concentration buffer causes partial depolarization that leads to sodium influx to disturb and to decrease excitability to subsequently reduce muscle force. Stimulation of Na^+/K^+ ATPase lowers intracellular sodium levels towards physiological levels to restore excitability and muscular force during electrical stimulation.
As the phosphodiesterase isoenzyme subtype 7 (PDE7) is the predominant PDE isoenzyme in skeletal muscle to raise cAMP this ex vivo model is suited for the testing the effect of PDE7 inhibitors and in particular their effect on force generation disturbed by mechanisms that worsen excitability or the energetic situation. […] High level activity of Na^+/K^+ ATPase stimulated by cAMP can counteract the decrease in excitability and the loss of force. […]
Force measurement: The experimental set-up used for force measurements allowed for the simultaneous recordings from 6 muscles in separate incubation chambers in parallel. Force was recorded and stored with a Notocord HEM data acquisition system. […]

CC(C)(C)NCC(O)c1ccc(O)c(CO)c1 (stereo not shown) [Salbutamol]
Mean residual contractile force in % (SEM in %): 26.6 (3.7); n = 31%
